Source: ChEMBL document CHEMBL1128455, “Ribose-modified adenosine analogues as potential partial agonists for the adenosine receptor” (J Med Chem, 1995)

Assays:
Adenosine receptor A2a = Adenosine receptor A2a (Rattus norvegicus, UniProt P30543); assay: Binding affinity against Adenosine A2A receptor by using [3H]CGS-21680 as radioligand
Rattus norvegicus = species: Rattus norvegicus; assay: GTP shift was determined in rat; assay type: functional
Adenosine receptor A1 [1] = biological target: T1, Adenosine receptor A1 (Rattus norvegicus, UniProt P25099)
T1 sequence (P25099 whole entry): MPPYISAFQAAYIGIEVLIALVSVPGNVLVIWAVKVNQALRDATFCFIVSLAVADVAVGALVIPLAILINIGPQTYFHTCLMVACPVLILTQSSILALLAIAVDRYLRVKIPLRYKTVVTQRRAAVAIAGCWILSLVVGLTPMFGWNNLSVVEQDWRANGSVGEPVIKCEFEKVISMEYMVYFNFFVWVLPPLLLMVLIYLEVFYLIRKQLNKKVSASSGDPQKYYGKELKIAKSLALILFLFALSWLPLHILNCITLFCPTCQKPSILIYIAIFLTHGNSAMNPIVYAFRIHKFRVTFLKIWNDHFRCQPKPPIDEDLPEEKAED
Description: Affinity for the Adenosine A1 receptor in the presence of GTP (A1+GTP) by using [3H]-DPCPX as radioligand

Adenosine receptor A1 [2] = biological target: T1, Adenosine receptor A1; remark: listed apart in the source
Description: Affinity for the Adenosine A1 receptor in the absence of GTP (A1-GTP) by using [3H]DPCPX as radioligand

Sequence of Adenosine receptor A2a (P30543 whole entry): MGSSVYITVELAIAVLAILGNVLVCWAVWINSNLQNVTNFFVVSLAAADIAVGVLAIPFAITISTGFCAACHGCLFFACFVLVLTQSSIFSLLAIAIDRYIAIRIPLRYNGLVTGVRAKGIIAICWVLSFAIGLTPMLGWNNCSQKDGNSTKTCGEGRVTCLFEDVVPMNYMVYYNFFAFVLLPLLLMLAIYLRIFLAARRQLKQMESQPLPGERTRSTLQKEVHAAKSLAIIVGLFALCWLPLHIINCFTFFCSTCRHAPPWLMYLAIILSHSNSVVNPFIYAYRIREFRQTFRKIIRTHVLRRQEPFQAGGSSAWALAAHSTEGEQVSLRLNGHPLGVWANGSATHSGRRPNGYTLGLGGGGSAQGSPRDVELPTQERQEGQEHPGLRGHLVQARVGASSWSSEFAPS

| Compound | Ki (Adenosine receptor A2a) [µM] | GTP shift (Rattus norvegicus) | Ki (Adenosine receptor A1 [1]) [µM] | Ki (Adenosine receptor A1 [2]) [µM] | % radioligand bound (Adenosine receptor A2a) [%] |
| --- | --- | --- | --- | --- | --- |
| OC[C@@H]1C[C@@H](O)[C@H](n2cnc3c(NC4CCCCC4)ncnc32)O1 | 22.1 | 4.1 | 1.26 | 0.31 | – |
| C[C@H](Cc1ccccc1)Nc1ncnc2c1ncn2C1CC(O)C(CO)O1 (stereo partly specified) | – | 1.7 | 14.4 | 8.45 | 86 |
| OC[C@H]1O[C@@H](n2cnc3c(NC4CCCC4)ncnc32)[C@H](O)[C@@H]1O [N6-CYCLOPENTYLADENOSINE] | 0.58 | – | – | – | – |
| OC[C@@H]1C[C@@H](O)[C@H](n2cnc3c(NC4CCCC4)ncnc32)O1 | 18.6 | 4.3 | 0.47 | 0.11 | – |
| OC[C@H]1O[C@@H](n2cnc3c(NC4CCCCC4)ncnc32)C[C@@H]1O | – | 2.6 | 22.8 | 8.94 | 90 |
| C[C@H](Cc1ccccc1)Nc1ncnc2c1ncn2C1O[C@H](C)[C@@H](O)[C@H]1O (stereo partly specified) | 3.67 | 3.6 | 1.07 | 0.3 | – |
| Cn1cnc2c(N)ncnc21 | 8.6 | 1.2 | 14.7 | 12.5 | – |
| OC[C@H]1O[C@@H](n2cnc3c(NC4CCCC4)ncnc32)C[C@@H]1O | – | 4.1 | 7.6 | 1.87 | 88 |
| C[C@H]1O[C@@H](n2cnc3c(N)ncnc32)[C@H](O)[C@@H]1O [5'-Deoxyadenosine] | – | 6.6 | 12.1 | 1.82 | – |
| Nc1ncnc2c1ncn2[C@@H]1O[C@H](CO)C[C@H]1O [CORDYCEPIN] | – | 2.1 | – | – | – |
| C[C@H](Cc1ccccc1)Nc1ncnc2c1ncn2[C@@H]1O[C@H](CO)C[C@H]1O | 7.36 | 2.9 | 1.01 | 0.35 | – |
| C[C@@H](Cc1ccccc1)Nc1ncnc2c1ncn2C1CC(O)C(CO)O1 (stereo partly specified) | – | – | – | – | 91 |
| C[C@H]1OC(n2cnc3c(NC4CCCC4)ncnc32)[C@H](O)[C@@H]1O (stereo partly specified) | 10.1 | 6.4 | 0.45 | 0.07 | – |
| C[C@@H](Cc1ccccc1)Nc1ncnc2c1ncn2[C@@H]1O[C@H](CO)C[C@H]1O | 57.2 | 2.1 | 17.5 | 8.26 | – |
